Measured values from patent publication US20180280435A1, “T CELL DELIVERY OF MDA-7/IL-24 TO IMPROVE THERAPEUTIC ERADICATION OF CANCER AND GENERATE PROTECTIVE ANTITUMOR IMMUNITY” (VIRGINIA COMMONWEALTH UNIVERSITY, priority 2015, published 2018).

B1: MDA-7/IL-24 protein: Melanoma differentiation associated gene-7/Interleukin-24, secreted protein of the IL-10 family (protein)
chain: QEFHFGPCQVKGVVPQKLWEAFWAVKDTMQAQDNITSARLLQQEVLQNVSDAESCYLVHTLLEFYLKTVFKNYHNRTVEVRTLKSFSTLANNFVLIVSQLQPSQENEMFSIRDSAHRRFLLFRRAFKQLDVEAALTKALGEVDILLTWMQKFYKL

How the values were obtained:
CD11b+Gr-1+MDSCs = assay: MDSC frequency after MCL-1 inhibitor in tumor-bearing mice (FACS); format: in vivo
Procedure: FIG. 6. Potential immune modulation by MCL-1 inhibition. MCL-1 inhibitor reduces MDSCs in tumor-bearing mice. Tumor-bearing mice received BI-97C1 (Sabutoclax) (5 mg/kg or 20 mg/kg) i.p. or left untreated. 24 h later, splenic CD11b+GR-1+MDSCs were assessed by FACS.
Reduction of MDSCs could be explained by the direct cytotoxic effect of BI-97C1 (Sabutoclax), due to its ability to abrogate Bcl-2 protein functions.

CD8+ T cells = assay: T cell proliferation, 3H-thymidine (TdR) incorporation after anti-CD3/CD28 stimulation; format: cell-based; details: 20 ng/ml protein
Procedure: (§1) A. CD8+ T cells were stimulated with anti-CD3/CD28 antibodies in the presence or absence of purified MDA-7/IL-24 protein (20 ng/ml). Cell proliferation was measured using 3H-thymidine (TdR) incorporation assays. P<0.05. B. C57BL/6 mice were injected i.v. with MDA-7/IL-24 protein (10 μg) or PBS. 48 h later, lymph node cells were assessed for IFN-γ-producing CD8+ T cells by intracellular staining.
(§2) The clinical application of immunotherapy is limited by the escape mechanisms cancer cells employ to avoid immune destruction due to immunoediting (e.g., selection of non-immunogenic or antigen loss cancer cell variants) and other immunosuppressive mechanisms at the tumor site. Since cancer-specific toxicity of MDA-7/IL-24 is antigen-independent, the delivery of a cancer-suicide agent in combination with T-cells may overcome the acquired tumor resistance to T-cell therapy. Intriguingly, MDA-7/IL-24 protein enhanced the proliferation of T cells upon TCR ligation (FIG. 8A). Treatment of mice with recombinant MDA-7/IL-24 protein increased the frequency of IFN-γ-expressing CD8+ T cells (FIG. 8B), supporting a role of MDA-7/IL-24 as a pro-Th 1 cytokine.

[1] = tested on: IFN-γ-producing CD8+ T cells; assay: IFN-γ-producing CD8+ T cells in lymph nodes after i.v. protein (intracellular staining); format: in vivo, C57BL/6 mice; details: 10 μg i.v., 48 h later, lymph node cells
Procedure: as §1, §2

Molecule | frequency of CD11b+Gr-1+MDSCs (CD11b+Gr-1+MDSCs; single administration i.p. (5 mg/kg or 20 mg/kg), splenic MDSCs 24 h later) | toxicity (CD11b+Gr-1+MDSCs; single administration in tumor-bearing mice) | proliferation of T cells upon TCR ligation (CD8+ T cells) | frequency of IFN-γ-expressing CD8+ T cells [1]
Cc1cc2c(C(=O)NC[C@H](C)c3ccccc3)c(O)c(O)cc2c(O)c1-c1c(C)cc2c(C(=O)NC[C@H](C)c3ccccc3)c(O)c(O)cc2c1O [BI-97C1, Sabutoclax] | substantially reduced | without inducing toxicity |  | 
B1 |  |  | enhanced | increased
